Measured values: article PMC4581252, “Permeability Study of Polyphenols Derived from a Phenolic-Enriched Hibiscus sabdariffa Extract by UHPLC-ESI-UHR-Qq-TOF-MS” (International Journal of Molecular Sciences, 2015)

Key:
Type in all cases: in vitro ADME, human
Caco-2 cell monolayer [1] = test: Caco-2 permeation of pure compounds related to PEHS (individual permeability assays); details: for Concentration in the receptor chamber, Basolateral-Apical Flux: 30 min (so in the source); for Concentration in the receptor chamber, Basolateral-Apical Flux / Concentration in the receptor chamber, Apical-Basolateral Flux: donor: quercetin 18.1, quercetin-3-glucoside 46.4, quercetin-3-glucuronide 47.8, N-feruloyltyramine 31.3 μg/mL, X ± SD; for Absorption across the Caco-2 intestinal barrier model (in words): pure compounds
Protocol: Standard calibration curves of the compounds under study were prepared using apigenin at a concentration of 10 μg/mL as an internal standard. […] The limits of detection (LODs) and limits of quantification (LOQs) for individual compounds in standard solutions were also calculated as S/N = 3 and S/N = 10, respectively, where S/N is the signal to noise ratio (Table 3). The compound concentrations were subsequently determined using the corrected area of each individual compound (three replicates) and by interpolation in the corresponding calibration curve. Repeatability of the proposed method was measured as the relative standard deviation (RSD, %) in terms of concentration. A mixed solution containing the analytes was injected several times (n = 3) on the same day (intraday precision) and three times on three consecutive days (interday precision, n = 9). Intraday repeatability of the method developed for all the analytes was from 0.11% to 1.93%, whereas the interday repeatability ranged from 0.17% to 2.06%.
(§1) To assess the potential intestinal absorption of PEHS and pure compounds, experiments were conducted using Caco-2 cells derived from human colorectal adenocarcinoma cells (obtained from the American Type Culture Collection). Cells were cultured in Dulbecco’s Modified Eagle Medium (DMEM) containing 10% (v/v) fetal bovine serum (FBS) and incubated at 37 °C in a humidified 5% CO2 air atmosphere. Cell monolayers were prepared by seeding 5 × 10^5 Caco-2cells/well on a six-well Transwell insert filter. Monolayers were used 19–22 days after seeding. The integrity of each cell monolayer was checked by measuring its transepithelial electrical resistance (TEER) with an epithelial voltohmmeter (EVOM, World Precision Instrument, Sarasota, FL, USA) before and after the experiments. The culture medium was replaced with fresh medium 24 h before the transport experiments. Compounds were added after washing the Caco-2 cell monolayer twice with pre-warmed HBSS medium (pH 7.4), in the apical or in the basolateral side, to evaluate the transport characteristics of the cells. Permeability studies were done by adding the PEHS solution at a concentration of 2500 μg/mL, quercetin at 18.1 μg/mL, quercetin-3-glucoside at 46.4 μg/mL, quercetin-3-glucuronide at 47.8 μg/mL, and N-feruloyltyramine at 31.3 μg/mL, while the receiving chamber contained the corresponding volume of transport medium. Samples were taken at different times (30, 60, 90, 120 min) and stored at −80 °C until their treatment.
(§2) After the permeation study, the Caco-2 cell monolayer was collected and the cells were lysed with three subsequent freezing-thawing cycles followed by bath sonication, of 10 min each step. Then, the samples were centrifuged during 15 min at 14,000 rpm and 4 °C, and the supernatants (cytoplasmic fraction) and the pellets (membranes) were stored at −80 °C.
The samples collected in the receiving chamber during the permeability assays were centrifuged for 15 min at 12,000 rpm and 4 °C. The supernatant was spiked with apigenin stock solution, used as an internal standard at a concentration of 10 μg/mL, in order to avoid irreproducibility of results between analyses. Finally, the samples were stored at −80 °C until the analysis, avoiding possible degradations.
(§3) The cytoplasms and cell membranes collected at the end of the permeability assays were subjected to protein precipitation using methanol, vortex-mixed, kept at −20 °C for 2 h and centrifuged at 12,000 rpm for 15 min at 4 °C. Finally, the supernatants were evaporated in a vacuum concentrator, dissolved in 100 μL of methanol, and then spiked with 10 μg/mL of apigenin, used as an internal standard for their analysis.
For the analysis of the samples, a Dionex Ultimate 3000 UHPLC (Thermo Scientific, Sunnyvale, CA, USA) was used coupled with an ultra-high resolution quadrupole time-of-flight mass spectrometer maXis (UHR-Qq-TOF-MS) from Bruker Daltonik (Bremen, Germany). […]

Caco-2 cell monolayer [2] = test: Caco-2 permeability of free PEHS extract: compounds detected in transport medium, cytoplasm and membrane; details: free PEHS 2500 μg/mL; for Compound detected in transport medium, Ap-Bas / Compound detected in transport medium, Bas-Ap: receiver chamber; for Compound detected in transport medium, Bas-Ap: basolateral to apical
From the text: (§4) One of the aims of this study was to compare the intestinal absorption of HS compounds when the PEHS extract was in a free form or in an encapsulated formulation, using the Caco-2 model system. This model is a well-established in vitro model for the investigation of the intestinal permeability of different compounds or drugs. Prior to the transport studies, the Caco-2 cell monolayer was established and validated. Monolayer integrity and reliability were ensured by measuring the transepithelial electrical resistance (TEER) values, which remained stable during the assay with the experimental conditions assayed. Afterwards, samples from apical and basolateral compartments obtained at different time points and cytoplasmic and membrane fractions of the cell monolayer collected at the end of the assay (see Section 3.3 and Section 3.4) were analyzed by UHPLC-ESI-UHR-Qq-TOF-MS in order to identify which compounds crossed the Caco-2 cell monolayer.
as §1, §2
(§5) The samples collected in the receiving chamber during the permeability assays were centrifuged for 15 min at 12,000 rpm and 4 °C. […] Finally, the samples were stored at −80 °C until the analysis, avoiding possible degradations.
as §3
For the analysis of the samples, a Dionex Ultimate 3000 UHPLC (Thermo Scientific, Sunnyvale, CA, USA) was used coupled with an ultra-high resolution quadrupole time-of-flight mass spectrometer maXis (UHR-Qq-TOF-MS) from Bruker Daltonik (Bremen, Germany). The chromatographic separation was performed in a Zorbax Eclipse Plus C-18 column (4.6 × 150 mm, 1.8 μm) at a flow rate of 0.3 mL/min using an injection volume of 5 μL.

Caco-2 cell monolayer [3] = test: Caco-2 permeability of encapsulated (liposome) PEHS extract: compounds detected in transport medium, cytoplasm and membrane; details: encapsulated PEHS 2500 μg/mL; for Compound detected in transport medium, Ap-Bas / Compound detected in transport medium, Bas-Ap: receiver chamber
From the text: as §4
Primary aqueous extract was obtained from sun-dried calyces from plants harvested in Senegal, with an approximate plant-to-extract ratio of 5:1 as previously described. The purified PEHS extract was kindly provided by Monteloeder, Inc. (Elche, Alicante, Spain) and was essentially prepared as previously described. The retained phenolic fraction was finally eluted with 95% ethanol and 0.01% trifluoroacetic acid (TFA), rotatory evaporated and freeze-dried. The PEHS encapsulated formulation was performed using empty liposomes, whose final concentration was 2 mM, adding soy phosphatidylcholine to the blend. To permeabilize the liposome membrane ethanol 10% was used. The extract was dissolved in HBSS at the desired concentration (2500 μg/mL), stirred for 10 min, and finally filtered through 0.45 μm three times (PVD filter).
as §1, §2, §5

[4] = cytoplasmic fraction at end of assay, apical to basolateral
[5] = membrane fraction at end of assay, apical to basolateral
[6] = membrane fraction at end of assay, basolateral to apical

Compound | Concentration in the receptor chamber, Basolateral-Apical Flux (Caco-2 cell monolayer [1]) | Concentration in the receptor chamber, Apical-Basolateral Flux (Caco-2 cell monolayer [1]; 30 min) | Concentration in the receptor chamber, Apical-Basolateral Flux (Caco-2 cell monolayer [1]; 60 min) | Concentration in the receptor chamber, Apical-Basolateral Flux (Caco-2 cell monolayer [1]; 90 min) | Concentration in the receptor chamber, Apical-Basolateral Flux (Caco-2 cell monolayer [1]; 120 min) | Absorption across the Caco-2 intestinal barrier model (in words) (Caco-2 cell monolayer [1]) | Compound detected in transport medium, Ap-Bas (Caco-2 cell monolayer [2]; apical to basolateral) | Compound detected in transport medium, Bas-Ap (Caco-2 cell monolayer [2]) | Compound detected in cytoplasm, Ap-Bas (Caco-2 cell monolayer [3]; [4]) | Compound detected in transport medium, Bas-Ap (Caco-2 cell monolayer [3]; basolateral to apical) | also measured
O=C(O)[C@H]1O[C@@H](Oc2c(-c3ccc(O)c(O)c3)oc3cc(O)cc(O)c3c2=O)[C@H](O)[C@@H](O)[C@@H]1O [Quercetin-3-glucuronide] | <LOQ | not detected | not detected | not detected | <LOQ | lesser extent |  |  |  |  | 
O=C(/C=C/c1ccc(O)c(O)c1)O[C@H]1[C@H](O)C[C@](O)(C(=O)O)C[C@H]1O [Cryptochlorogenic acid] |  |  |  |  |  |  | + | + | + | + | Compound detected in cytoplasm, Bas-Ap (Caco-2 cell monolayer [3]; cytoplasmic fraction at end of assay, basolateral to apical): +; Compound detected in transport medium, Ap-Bas (Caco-2 cell monolayer [3]; apical to basolateral): +
COC(=O)c1cc(O)c(O)c(OC(=O)c2cc(O)c(O)c(O)c2)c1 [Methyldigallate, Methyl digallate] |  |  |  |  |  |  |  | + | + | + | 
O=c1c(O[C@@H]2O[C@H](CO)[C@@H](O)[C@H](O)[C@H]2O)c(-c2ccc(O)c(O)c2)oc2cc(O)cc(O)c12 [Quercetin-3-glucoside] | <LOQ | <LOQ | <LOQ | <LOQ | 470 ± 30 ng/mL | lesser extent |  |  |  |  | 
Methylepigallocatechin |  |  |  |  |  |  |  | + |  |  | 
O=C(/C=C/c1ccc(O)c(O)c1)O[C@@H]1CC(C(=O)O)=C[C@@H](O)[C@H]1O [5-O-caffeoylshikimic acid] |  |  |  |  |  |  | + | + |  | + | 
O=C1C[C@](O)(C(=O)O)[C@@H](C(=O)O)O1 [Hibiscus acid] |  |  |  |  |  |  |  |  | + |  | 
O=c1c(O)c(-c2ccc(O)c(O)c2)oc2cc(O)cc(O)c12 [Quercetin] | 1100 ± 400 ng/mL | 280 ± 20 ng/mL | 490 ± 30 ng/mL | 1330 ± 20 ng/mL | 1320 ± 10 ng/mL | significant absorption | + | + | + |  | Time at which maximum permeation / maximum concentration was reached (Caco-2 cell monolayer [1]; both flux directions, sampling at 30, 60, 90, 120 min): 90 min; Final concentration in the basolateral-apical flux relative to the opposite flux (Caco-2 cell monolayer [1]; end of assay): around five-fold; Compound detected in cytoplasm, Ap-Bas (Caco-2 cell monolayer [2]; [4]): +; Compound detected in membrane, Ap-Bas (Caco-2 cell monolayer [2]; [5]): +
O=C(/C=C/c1ccc(O)cc1)O[C@@H]1C[C@](O)(C(=O)O)C[C@@H](O)[C@H]1O [Coumaroylquinic acid] |  |  |  |  |  |  |  | + |  |  | Compound detected in membrane, Bas-Ap (Caco-2 cell monolayer [3]; [6]): +
COc1cc(/C=C/C(=O)NCCc2ccc(O)cc2)ccc1O [N-feruloyltyramine] | 1350 ± 40 ng/mL | 690 ± 20 ng/mL | 2300 ± 200 ng/mL | 4200 ± 500 ng/mL | 6600 ± 800 ng/mL | significant absorption | + | + |  | + | Compound detected in transport medium, Ap-Bas (Caco-2 cell monolayer [3]; apical to basolateral): +
COC(=O)C1OC(=O)CC1(O)C(=O)OC (stereo not drawn) [Hibiscus acid dimethylesther] |  |  |  |  |  |  |  |  | + |  | Compound detected in membrane, Ap-Bas (Caco-2 cell monolayer [3]; [5]): +; Compound detected in membrane, Bas-Ap (Caco-2 cell monolayer [3]; [6]): +
